What was measured:
[1] = test system: lymphocytes in the peripheral blood; assay: Variation in number of lymphocytes in peripheral blood in rat; assay type: in vivo; conditions: male LEW/Crj rats, single oral gavage, suspension in 0.5% MC solution
Experimental: (§1) Male LEW/Crj rats at 3 or 6 weeks old were purchased from Charles River Laboratory Japan Inc. The rats were acclimatized for a week before the start of experiments. The rats were used for the experiments at 3 or 5 rats per one group. A necessary amount of a compound was weighed and suspended in a 0.5% MC solution by using a mortar and a muddler, or a homogenizer. A liquid for administration was prepared so as to be 5 mL per 1 kg body weight. The prepared solution was administered once by oral gavage. […] The blood was immediately put into a vacuum-sealed blood collection tube coated with an anticoagulant (EDTA-2K) (Nipro Corporation) and mixed. The sample was handled under room temperature condition until measurement. The number of the lymphocytes was measured by using an automatic hemacytometer (ADVIA120, Siemens Healthcare Diagnostics K. K.). At the time of blood collection, the thymus gland was also excised.

S1P lyase = biological target: T1, S1P lyase (Rattus norvegicus, UniProt Q8CHN6); assay: S1P lyase inhibitory ability in rat (thymus gland extract after oral administration); assay type: in vivo; conditions: thymus gland extract of orally dosed rats, [3H]dhS1P substrate, 37° C. for 1 hour
T1 construct: The excised thymus gland was crushed; from tissue; host or cells: thymus gland of male LEW/Crj rats (extract supernatant)
T1 sequence (Q8CHN6 1-568): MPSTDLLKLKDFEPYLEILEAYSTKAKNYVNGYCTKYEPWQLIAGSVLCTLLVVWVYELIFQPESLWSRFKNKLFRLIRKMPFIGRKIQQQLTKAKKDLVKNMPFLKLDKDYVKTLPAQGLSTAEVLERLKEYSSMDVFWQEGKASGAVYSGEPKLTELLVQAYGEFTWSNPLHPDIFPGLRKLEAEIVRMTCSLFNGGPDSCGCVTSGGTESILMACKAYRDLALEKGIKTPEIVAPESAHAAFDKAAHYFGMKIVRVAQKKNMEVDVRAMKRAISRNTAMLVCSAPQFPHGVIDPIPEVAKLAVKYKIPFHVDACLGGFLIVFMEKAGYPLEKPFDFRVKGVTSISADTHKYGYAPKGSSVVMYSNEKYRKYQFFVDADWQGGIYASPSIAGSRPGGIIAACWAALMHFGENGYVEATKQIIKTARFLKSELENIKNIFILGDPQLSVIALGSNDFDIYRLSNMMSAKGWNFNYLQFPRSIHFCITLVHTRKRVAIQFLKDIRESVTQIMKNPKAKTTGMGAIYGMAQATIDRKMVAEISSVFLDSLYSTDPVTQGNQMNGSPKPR
Experimental: as §1, with “At the time of blood collection, the thymus gland was also excised.” left out
The excised thymus gland was crushed by either a method including using zirconia beads in the presence of a homogenize buffer (50 mM HEPES-NaOH (pH=7.4), 0.15 M NaCl, 10% Glycerol, 1 mM EDTA, 1 mM DTT and complete protease inhibitor cocktail (Roche, #4693132)) or a method including chopping up the thymus gland and thereafter using a Potter-Elvehjem homogenizer. […] The protein amount in the supernatant was quantified by the Bradford method, and the supernatant was flash-freezed with liquid nitrogen and then stored at −80° C. […]

Row | Structure (SMILES) | number of lymphocytes in the peripheral blood [1] | S1P lyase activity in the thymus gland (S1P lyase)
1 | CC(=O)c1nc(COP(=O)(O)O)c[nH]1 [Example 1, Phosphoric acid mono-(2-acetyl-1H-imidazol-4-ylmethyl) ester and phosphoric acid mono-(2-acetyl-3H-imidazol-4-ylmethyl) ester] | reduced the number of lymphocytes in the peripheral blood | decreased SIP lyase activity in the thymus gland
2 | CC(=O)c1nc(COP(=O)(O)O)c(C)[nH]1 [Example 2, Phosphoric acid mono-(2-acetyl-5-methyl-1H-imidazol-4-ylmethyl) ester and phosphoric acid mono-(2-acetyl-5-methyl-3H-imidazol-4-ylmethyl) ester] | reduced the number of lymphocytes in the peripheral blood | decreased SIP lyase activity in the thymus gland
3 | O=P(O)(O)OCc1c[nH]c(-c2ccon2)n1 [Example 4, Phosphoric acid mono-(2-isoxazol-3-yl-1H-imidazol-4-ylmethyl) ester and phosphoric acid mono-(2-isoxazol-3-yl-3H-imidazol-4-ylmethyl) ester] | reduced the number of lymphocytes in the peripheral blood | –

Source: patent publication US9120835B2, “Phosphoric acid ester derivatives” (Daiichi Sankyo Company Limited, priority 2011, dated 2015)
